Bridge positions count the residues as written; N and C are the ends. Square brackets hold non-standard residues; d marks the D form. Ends that are not written are not given here. hPhe = N[C@@H](CCc1ccccc1)C(=O)O; Cit = NC(=O)NCCC[C@H](N)C(=O)O
Key:
[1] = test system: MGC-803 gastric cancer cells; assay: Growth suppression, apoptosis and IC50 in gastric cancer cells MGC-803; assay type: cell-based; conditions: Homo sapiens, MGC-803, read-out: IC50 (IC50 drift, DOX only or AMP-001/DOX combination)
iCell Cardiomyocytes = assay: cells; conditions: Homo sapiens, Cardiomyocyte, read-out: IC50 in cardiomyocytes
Description: Cardiomyocytes were derived from this engineered stem cell clone line as follows. Stem cell aggregates were formed from single cells and cultured in suspension in medium containing zebrafish bFGF (basic fibroblast growth factor) and fetal bovine serum. Upon observation of beating cardiac aggregates, cultures were subjected to blasticidin selection at 25 ug/ml to enrich the cardiomyocyte population. Cardiomyocyte aggregate cultures were maintained in Dulbecco's modified Eagle's medium (DMEM) containing 10% fetal bovine serum during cardiomyocyte selection through the duration of the culture prior to cryopreservation. At 30 to 32 days of culture the enriched, stem cell-derived cardiomyocytes were subjected to enzymatic dissociation using 0.5% trypsin to obtain single cell suspensions of purified cardiomyocytes, which were >98% cardiac troponin-T (cTNT) positive. These cells (iCell® Cardiomyocytes) were cryopreserved and stored in liquid nitrogen before delivery to Ionic Transport Assays from Cellular Dynamics International, Madison, WI.
For this study, single vials containing≈4.5×10^6 cardiomyocytes were thawed by immersing the frozen cryo-vial in a 37° C. water bath, transferring thawed cardiomyocytes into a 50 ml tube and diluting them with room temperature plating medium (iCell® Cardiomyocyte Plating Medium (iCPM), Cellular Dynamics International). […]

[2] = test system: SGC-7901 gastric cancer cells; assay: Growth suppression, apoptosis and IC50 in gastric cancer cells SGC-7901; assay type: cell-based; conditions: Homo sapiens, read-out: IC50 (IC50 drift, DOX only or AMP-001/DOX combination); SGC-7901 cells
MGC-803 xenograft = assay: Synergy with doxorubicin in gastric cancer animal model in vivo; design: species or system athymic BALB/cA nu/nu female mice; conditions: 1 mg/kg i.p. every other day for 3 weeks
[3] = test system: MDA-MB-231 triple negative breast cancer cells; assay: Cell death / apoptosis induction, concentration dependent treatment (FACS); assay type: cell-based; conditions: TNBC MDA-MB-231 cells, read-out: cell death effect IC-50
Description: Briefly, MDA-MB-231 cells are seeded in 12-well culture plates and grown to 80% confluency, followed by 72 h treatment with various concentrations of drugs in various combinations; untreated MDA-MB-231 cells are used as control. After the completion of treatment time cells are trypsinized, washed, and analyzed for dead or apoptotic cells by staining with propidium iodide (10 μg/ml) for 15 min, followed by flow cytometry (FACS Aria Ill, BD Biosciences, San Jose, CA, USA) at the Stanford FACS Facility. Data are analyzed by Flow Jo FACS analysis software (Tree Star, Ashland, OR, USA).

MDA-MB-231 tumor cells = assay: Synergistic cell death effect of AMP compounds with chemotherapy (doxorubicin, carboplatin); assay type: cell-based
Description: MMP2 cleavable AMP-008 was dissolved in culture medium and sonicated for 2 min each and repeated for 3 times. After the cells treated with different concentration of doxorubicin HCl (Bedford Lab, Bedford, OH), AMP compounds alone or combination of doxorubicin and AMP compounds were tested for 17 hrs incubation respectively, the cells were washed three times with PBS (pH 7.4) and incubated with Cy5.5 Annexin-V (BD Bioscience Pharmingen) according to the instructions of the manufacture. The cells were imaged using Nikon Eclipse TE-300 fluorescence microscope and counted under Ex/Em 620-680 nm nm/700-750 nm.

IC50 [1] [µM] | IC50 [2] [µM] | Compound | IC50 (iCell Cardiomyocytes) [µM] | extent of tumor regression (MGC-803 xenograft) | IC50 [3] [µM] | synergistic effect when both were administered together (MDA-MB-231 tumor cells; AMP compound and doxorubicin administered together) | cell death, synergistic (not additive) effect (MDA-MB-231 tumor cells; pretreatment with AMP compound for 6 hrs followed by 1 μM doxorubicin)
1.08 | 0.436 | COc1cccc2c1C(=O)c1c(O)c3c(c(O)c1C2=O)C[C@@](O)(C(=O)CO)C[C@@H]3O[C@H]1C[C@H](N)[C@H](O)[C@H](C)O1 [doxorubicin] | 9.6 | reasonable | – | – | –
– | – | AMP-004: human beta-defensin joined to MMP2 cleavable peptide, SEQ ID NO: 003, three disulfide bonds (Ac-EGGGP[Cit]G[hPhe]YLDHYNCVSSGGQCLYSACPIFTKIQGTCYRGKAKCCK; disulfide 15-44, 22-37, 27-45) | – | – | ~5 | Synergistic effect was same | greater than 80%

Reference: US11957732B2, “Compositions and methods for sensitizing low responsive tumors to cancer therapy” (priority 2016, dated 2024)
